In patent US10888555B2 (CONARIS RESEARCH INSTITUTE AG, priority 2013, dated 2021):
Entries after “also recorded” stand apart in the source; their conditions may differ.

What was measured:
[1] = cited from earlier work
C57BL/6J mice = assay: Acute tunicamycin-induced NAFLD/NASH model: histological liver damage score; assay type: in vivo, mouse; details: 60 mg/kg/d in drinking water, 3 mice with and 3 without NAM, 48 h after tunicamycin 2 μg/g i.p., FIG. 4
Experimental: In order to extend the findings of von Schönfels et al. 2014 (Liver Int. doi: 10.1111/liv.12476) with NA in a chronic model of NAFLD, the effect of NAM was investigted in an acute murine model of NASH (Lee et al. 2012, Toxicol. Lett. 211:29). C57BL/6J mice (n=6; age: 12-13 weeks) were injected intraperitoneally with tunicamycin (TM; 2 μg/g body weight). After 48 h, the mice were sacrificed and liver tissue was collected for histological analysis of signs of NAFLD/NASH as described previously (Lee et al. 2012, Toxicol. Lett. 211:29). NAM was administered to three of the six mice in the drinking water from 2 days before the TM challenge until the end of the experiment. NAM was administered at 0.4 g/l, corresponding to approximately 60 mg/kg/d (assumptions from general averages: body weight of a mouse: 20 g; water intake: 3 mL/mouse/d; 3 mL with a concentration of 0.4 g/L contained 1.2 mg NAM, resulting in a dose of approximately 60 mg/kg/d).
Paraffin-embedded liver tissue sections (3 μm) from mice after TM challenge were subjected to hematoxylin/eosin staining and scored in a blinded manner. Hepatic steatosis, hepatocyte ballooning and inflammation were determined in a scoring system modified from Brunt 2001 (Semin. Liver Dis. 21:3). The stage scores were based on liver fibrosis. The 0-3 grading includes: 0, none; 1, mild; 2, moderate; and 3, severe.

Row | Compound | doses above which side effects including flush, tachycardia, blood pressure dysregulation and diarrhea have to be anticipated ([1]; Carlson 2005, German Federal Institute for Risk Assessment) [mg/day] | tolerable upper intake level without anticipated side effects ([1]; adults, European Scientific Committee on Food) [mg/day] | recommended maximum nutritional doses ([1]; adults, SCF/CS/NUT/UPPLEV/39) | tunicamycin-induced NAFLD/NASH liver damage score (C57BL/6J mice)
1 | O=C(O)c1cccnc1 [nicotinic acid] | 100 to 300 | 10 | – | –
2 | NC(=O)c1cccnc1 [NAM, nicotinamide] | – | – | up to 900 mg/d | small, but significant reduction; also recorded: moderate, but significant protection
